Holding throughout (format): cell-based
Assay [1] addresses T1, NOD1 (Homo sapiens, UniProt Q9Y239).
T1 construct: host or cells: HEK-Blue NOD1 cells (HEK293-derived)
T1 sequence (Q9Y239 1-953): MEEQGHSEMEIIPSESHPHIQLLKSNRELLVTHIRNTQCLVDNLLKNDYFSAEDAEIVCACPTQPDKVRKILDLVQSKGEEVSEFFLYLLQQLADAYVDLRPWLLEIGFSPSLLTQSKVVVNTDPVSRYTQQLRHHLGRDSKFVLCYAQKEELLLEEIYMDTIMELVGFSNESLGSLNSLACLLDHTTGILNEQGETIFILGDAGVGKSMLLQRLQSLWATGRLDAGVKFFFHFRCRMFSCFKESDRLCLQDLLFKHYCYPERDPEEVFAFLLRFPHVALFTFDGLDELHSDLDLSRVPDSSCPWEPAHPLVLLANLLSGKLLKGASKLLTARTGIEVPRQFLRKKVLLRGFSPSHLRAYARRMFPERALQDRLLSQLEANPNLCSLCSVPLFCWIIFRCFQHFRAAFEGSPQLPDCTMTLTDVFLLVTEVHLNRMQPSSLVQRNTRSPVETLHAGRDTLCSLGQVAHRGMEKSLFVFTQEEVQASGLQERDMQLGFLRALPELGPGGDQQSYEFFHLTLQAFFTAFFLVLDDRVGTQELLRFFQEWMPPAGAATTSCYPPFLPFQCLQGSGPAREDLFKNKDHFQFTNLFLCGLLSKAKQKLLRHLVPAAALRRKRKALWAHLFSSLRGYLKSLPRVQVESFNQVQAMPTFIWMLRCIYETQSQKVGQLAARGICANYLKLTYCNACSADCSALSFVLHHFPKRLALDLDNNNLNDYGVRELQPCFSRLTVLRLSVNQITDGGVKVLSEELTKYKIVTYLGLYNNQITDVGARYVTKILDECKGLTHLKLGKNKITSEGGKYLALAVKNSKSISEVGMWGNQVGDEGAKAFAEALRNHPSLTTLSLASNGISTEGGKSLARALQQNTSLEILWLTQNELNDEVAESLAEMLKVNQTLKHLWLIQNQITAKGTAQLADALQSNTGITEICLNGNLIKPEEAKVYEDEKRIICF
The assay can be described thus: HEK-Blue NOD1 cell line reporter assay (selectivity). To be noted: HEK-Blue NOD1 cells, 2 μM, 18 h. As for the experimental part: As NOD2 and NOD1 agonists share certain structural characteristics, we wanted to determine whether these compounds selectively target NOD2. Selectivity against NOD1 of MDP and all of these synthesized desmuramylpeptides was analyzed in an analogous assay with the HEK-Blue NOD1 cell line.
(§1) HEK-Blue NOD2 and NOD1 cell line reporter assays are derived from HEK293 cells by cotransfection of the hNOD2 or hNOD1 genes, respectively, and an NF-κB-inducible secreted embryonic alkaline phosphatase (SEAP) reporter gene. Following activation of NOD2 or NOD1, the resulting NF-κB induces production of SEAP, the levels of which can be quantified colorimetrically. […] After 18 h of incubation (37 °C, 5% CO2), secreted embryonic alkaline phosphatase (SEAP) activity was determined spectrophotometrically as absorbance at 630 nm (BioTek Synergy microplate reader; Winooski, VT, U.S.A.). EC50 values were calculated using Prism software (version 9; GraphPad Software, CA, U.S.A.). For determination of specificity, HEK-Blue NOD2 cells (2.5 × 10^5 cells/mL) were first pretreated for 1 h with a 10 μM NOD2 antagonist, before the addition of the compounds (2 μM), with incubation for 18 h. SEAP activity in the supernatants was determined as above. The experiments were run in duplicate and repeated as at least two independent biological replicates.
Supporting figure S2. NOD1 agonistic activities of desmuramylpeptides. […]
A general note: A reporter such as luciferase makes a cellular process visible.

Assay [2] addresses T2, NOD2 (Homo sapiens, UniProt Q9HC29).
T2 construct: host or cells: HEK-Blue NOD2 cells (HEK293-derived)
The assay can be described thus: HEK-Blue NOD2 cell line reporter assay (NF-κB-inducible SEAP). To be noted: HEK-Blue NOD2 cells, 18 h, mean ± SEM.

Assay [3] addresses T2, NOD2. The assay can be described thus: Specificity: NOD2 antagonist pretreatment of HEK-Blue NOD2 cells. To be noted: 10 μM NOD2 antagonist 1 h, then 2 μM compound 18 h. The procedure: Furthermore, the specificities were determined by pretreating HEK-Blue NOD2 cells with a previously reported NOD2 antagonist[77] prior to stimulation with MDP (2 μM) or the desmuramylpeptides (2 μM). The resulting NF-κB-induced SEAP activities were compared to those of the controls without the NOD2 antagonist pretreatment.
as §1
Supporting figure S2. […]

T2 sequence (Q9HC29 whole entry): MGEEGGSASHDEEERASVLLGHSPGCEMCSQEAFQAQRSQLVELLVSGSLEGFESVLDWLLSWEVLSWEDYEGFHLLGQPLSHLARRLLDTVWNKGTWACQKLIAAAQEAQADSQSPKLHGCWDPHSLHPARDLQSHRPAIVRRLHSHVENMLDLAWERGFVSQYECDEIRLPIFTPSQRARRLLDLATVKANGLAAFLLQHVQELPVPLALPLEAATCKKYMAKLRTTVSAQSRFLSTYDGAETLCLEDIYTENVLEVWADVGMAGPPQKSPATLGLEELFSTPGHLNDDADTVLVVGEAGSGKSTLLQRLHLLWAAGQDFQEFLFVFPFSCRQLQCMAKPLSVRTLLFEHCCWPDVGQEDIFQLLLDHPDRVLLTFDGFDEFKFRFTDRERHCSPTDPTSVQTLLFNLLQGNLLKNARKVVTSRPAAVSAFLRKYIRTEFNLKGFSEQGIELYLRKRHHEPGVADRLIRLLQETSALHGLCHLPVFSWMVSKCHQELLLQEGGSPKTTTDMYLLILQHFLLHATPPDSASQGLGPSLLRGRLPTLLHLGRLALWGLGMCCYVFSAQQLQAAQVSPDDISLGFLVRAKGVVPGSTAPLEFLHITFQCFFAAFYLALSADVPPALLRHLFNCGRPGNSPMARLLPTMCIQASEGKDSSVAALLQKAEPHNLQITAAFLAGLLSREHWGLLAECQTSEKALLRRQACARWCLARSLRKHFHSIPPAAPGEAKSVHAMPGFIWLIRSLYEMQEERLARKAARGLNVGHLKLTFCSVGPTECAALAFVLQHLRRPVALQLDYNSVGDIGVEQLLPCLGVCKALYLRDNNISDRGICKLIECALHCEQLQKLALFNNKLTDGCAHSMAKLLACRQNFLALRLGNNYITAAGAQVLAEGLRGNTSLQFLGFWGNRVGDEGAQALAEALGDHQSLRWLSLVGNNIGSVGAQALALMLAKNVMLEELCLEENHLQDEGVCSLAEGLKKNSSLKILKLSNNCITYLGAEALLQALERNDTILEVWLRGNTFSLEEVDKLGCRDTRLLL

The term EC50 denotes the midpoint of the concentration-response curve. As for `CCOC(=O)CC[C@@H](NC(=O)[C@@H](NC(=O)CNC(=O)/C=C/c1ccc(O)c(O)c1)C(C)C)C(=O)OCC` [Compound 21, Diethyl ((E)-3-(3,4-Dihydroxyphenyl)acryloyl)glycyl-L-valyl-D-glutamate], in assay [1], the NOD1 agonistic activity entry is “showed no activity in the NOD1 assay”. Moreover, the “NOD2 activity at 2 μM (fold increase)” value in assay [2] (2 μM, NF-κB transcriptional (SEAP) activity relative to 0.1% DMSO) stood at 2.28 ± 0.07 fold increase. Besides, the half-maximal effective concentration (EC50) in assay [2] (7 or 8 concentrations 1 nM to 20 μM) was found to be 1730 ± 101 nM. Besides, in assay [3], the “NF-κB transcriptional activity after NOD2 antagonist pretreatment” value is listed as “reduced NOD2 activation”.

The values are drawn from article PMC8279416, “Structural Fine-Tuning of Desmuramylpeptide NOD2 Agonists Defines Their In Vivo Adjuvant Activity” (Journal of Medicinal Chemistry, 2021).
